How the values were obtained:
[1] = tested on: guinea pig ileon; experiment: Relaxant activity on the guinea pig ileon (isolated organ bath); settings: isolated terminal guinea pig ileon, oxygenated Tyrode liquid, 37° C; for minimal effective concentration: Cavia porcellus, read-out: Relaxant Activity (concentration which caused a suppression of spontaneous contractions and relaxed the organ)
Procedure: The relaxant effect of the test compounds was determined on guinea pig ileon using the following procedure. The terminal portion of the guinea pig ileon was removed and washed with Tyrode solution at 37° C. It was then suspended in a bath of oxygenated Tyrode liquid at 37° C and the contractions were registered on a collector attached to a Sanborn polygraph. The test product was added to bath of the organ with a low volume and the concentration which caused a suppression of spontaneous contractions and relaxed the organ causing a lowering of the line of the base was considered to be relaxant.

[2] = tested on: mice; experiment: Analgesic activity - stretching provoked by acetic acid (Koster et al); assay type: in vivo; settings: Mus musculus, 0.25 h, oral, one half hour before intraperitoneal 1% acetic acid 100 mg/kg, 15 minute observation, fasted, read-out: DA50 (dose which reduced the number of stretchings by 50%)
Procedure: The test procedure was that of Koster et al wherein an intraperitoneal injection of aqueous acetic acid in a concentration of 1% at a dose of 100 mg/kg caused in mice repeated movements of stretching and twisting which can persist for more than 6 hours. Analgesics prevent or lessen the syndrome. The test products were orally administered one half hour before the acetic acid injection and the mice were fasted from the day before the test. The stretching were counted for each mouse during a 15 minute observation period beginning right after the acetic acid injection and the analgesic effect was expressed as a percentage of protection with respect to the controls.

[3] = tested on: prostaglandin synthetases of lungs of guinea pigs; experiment: Inhibitory effect against biosynthesis of prostaglandins starting with arachidonic acid by prostaglandin synthetases of lungs of guinea pigs (Vane); assay type: biochemical; settings: guinea pig lung homogenate supernatant, 10 μg arachidonic acid, 30 minutes at 37° C; prostaglandin-like activity read on isolated rat colon; read-out: CI50 (inhibited by 50% the biosynthesis activity)
Description: C. INHIBITORY EFFECT AGAINST BIOSYNTHESIS OF PROSTAGLANDINS SYNTHESIS OF PROSTAGLANDINS STARTING WITH ARACHIDONIC ACID BY MEANS OF PROSTAGLANDIN SYNTHETASES OF LUNGS OF GUINEA PIGS.
This test used the procedure of Vane [Nature New Biology, Vol. 231 (1971), p. 232-235] wherein the lungs of adult guinea pigs (2 per series) were rapidly removed and washed with a modified, iced Bucher medium. The lung tissue was homogenized in a Turrax grinder in a minute and the homogenate was centrifuged for 20 minutes to 1200 g. The supernatant was used as a preparation of prostaglandin synthetases.
A solution of arachidonic acid in ethanol at a concentration of 10 mg/ml was diluted with a 0.2% aqueous sodium carbonate solution and was then diluted further with a modified Bucher medium to obtain a final acid concentration of 200 μg/ml. The biosynthesis inhibitors are put into aqueous or dilute alcohol (20% maximum) solutions. Tubes were prepared containing 1 ml of the prostaglandin synthetases preparation, 10 μg of arachidonic acid and 0.1 ml of inhibiting solution or, for the controls, an equal volume of water or dilute alcohol. The tubes were incubated with stirring for 30 minutes at 37° C in aerobic conditions and each test consisted of a tube containing a biosynthesis inhibitor, one biosynthesis control with incubated arachidonic acid and one control with non-incubated arachidonic acid. The latter control permitted a evaluation of amount of natural prostaglandins present in the ground lung and the results obtained with this control must therefore be taken away from the control of biosynthesis and from all the tests. The reactions were stopped by immension in boiling water until the proteins are coagulated. The dosage of "prostaglandin like" activity was effected biologically on the isolated rat colon suspended in Krebs liquid, mixed to augment the specificity, with antagonists to other contracturant mediators susceptible to interfere. The antagonists were mepyramine, scopolamine, methysergide, phenoxybenzamine and propanolol.
A comparison of the results registered in the presence or absence of a test product permitted the calculation of the percentage of biosynthesis inhibition. The CI50 dose which inhibited by 50% the biosynthesis activity was graphically obtained by straight line representing the percent of inhibition with reference to the incubated controls against the log of the concentration in μg/ml and the results are reported in Table II.

Row | SMILES | Relaxant Activity (concentration which caused a suppression of spontaneous contractions and relaxed the organ) [1] | ED50 [2] | IC50 [3] | minimal effective concentration [1]
1 | CCCCC[C@H](O)/C=C/[C@H]1CC[C@H](O)[C@H]1CO (racemic) [Product A, (1RS, 2SR, 5RS, 3'SR) (1'E) 2,3'-dihydroxy-5-(1'-octenyl)-cyclopentane methonol] | 20 µg/mL | – | – | –
2 | CCCCC[C@@H](/C=C/[C@H]1CC[C@H](O)[C@@H]1C(=O)OCC)OC(=O)c1ccccc1C(=O)O (relative stereo) [Product B, ethyl (1RS, 2SR, 5RS, 3'SR) (1'E) 2-hydroxy-5-(3'-α-hemiphthaloyloxy-1'-octenyl)-cyclopentanecarboxylate] | – | ~100 mg/kg | – | –
3 | CCCCCCCCCC(=O)O[C@H](/C=C/[C@H]1CC[C@H](O)[C@@H]1C(=O)OCC)CCCCC (relative stereo) [Product C, ethyl (1RS, 2SR, 5RS, 3'SR) (1'E) 2-hydroxy-5-(3'-decanoyloxy-1'-octenyl)-cyclopentanecarboxylate] | – | – | 137 µM | 20 µg/mL
4 | CCCCC[C@@H](/C=C/[C@H]1CC[C@H](O)[C@@H]1C(=O)OCC)OC (relative stereo) [Product D, ethyl (1RS, 2SR, 5RS, 3'SR) (1'E) 2-hydroxy-5-(3'methoxy-1'-octenyl)-cyclopentanecarboxylate] | – | – | 436 µM | 5 µg/mL
5 | CCCCC[C@@H](/C=C/[C@H]1CC[C@@H](O)[C@@H]1C(=O)OCC)OC (relative stereo) [Product E, ethyl (1RS, 2RS, 5RS, 3'SR) (1'E) 2-hydroxy-5(3'-methoxy-1'-octenyl)-cyclopentanecarboxylate] | – | – | 671 µM | 10 µg/mL
6 | CCCCC[C@@H](/C=C/[C@H]1CC[C@H](O)[C@@H]1C(=O)OCC)OC(=O)CCC(=O)O (relative stereo) [Product F, ethyl (1RS, 2SR, 5RS, 3'SR) (1'E) 2-hydroxy-5-(3'-hemisuccinyloxy-1'-octenyl)-cyclopentanecarboxylate] | – | – | 123 µM | –
7 | CCCCCCCCCC(=O)O[C@H](/C=C/[C@H]1CC[C@@H](O)[C@@H]1C(=O)OCC)CCCCC (relative stereo) [Product G, ethyl (1RS, 2RS, 5RS, 3'SR) (1'E) 2-hydroxy-5-(3'-decanoyloxy-1'-octenyl)-cyclopentanecarboxylate] | – | – | 113 µM | –

— patent US4072755A, “Novel cyclopentanoic acid derivatives” (Roussel UCLAF, priority 1975, dated 1978)
